Assay results published in US9745288B2, “Compounds and methods for treating cancer by inhibiting the urokinase receptor” (Indiana University Research and Technology Corporation, priority 2011, dated 2017).
pIC50, pKi: −log10 of the molar value. One block for each compound: values may come before it.

Experiments:
uPAR = molecular target: T1, uPAR (Homo sapiens, UniProt Q03405); assay: Fluorescence polarization assay, displacement of AE147-FAM peptide from uPAR; type: binding; conditions: Table 1, assay not stated; for pKi: read-out: Ki
T1 construct: human uPAR (suPAR, amino acids 1-283) was expressed in stably transfected Drosophila S2 cells; made in house; host or cells: Drosophila S2 cells
Procedure: Fluorescence Polarization Assay. The fluorescence polarization assay used fluorescent AE147-FAM peptide. uPAR was titrated against the fluorescent AE147-FAM peptide and data were fit to a sigmoidal dose-dependent curve as the FP value increases to determine the Kd of binding using Sigmaplot (Systat Software Inc., CA). Inhibitor screens were carried out in triplicates using 500 nM uPAR, 100 nM AE147-FAM, and inhibitor concentrations ranging from 0.78 μM to 100 μM in 50 μL volumes in black BD Falcon 384-well microplate. […] Polarized fluorescence intensities were measured immediately following addition of inhibitors to the protein-peptide mix at room temperature on an EnVision® Multilabel Plate Readers (PerkinElmer) with excitation and emission wavelengths of 485 nm and 530 nm, respectively.
Cloning, Expression and Purification of uPAR. uPAR was successfully cloned, expressed and purified. From 1 L of culture, nearly 12 mg of protein was expressed, which will be sufficient to conduct the experiments disclosed herein. Briefly, a truncated, soluble form of human uPAR (suPAR, amino acids 1-283) was expressed in stably transfected Drosophila S2 cells using the Drosophila Expression System (Invitrogen). suPAR was obtained by a two-step purification process. The conditioned culture medium was filtered (0.45 μm) and loaded onto a DEAE Sephadex column equilibrated with 20 mM Tris (pH 7.4). The protein was eluted with a gradient of 0-1 M NaCl in 20 mM Tris (pH 7.4). suPAR containing fractions were then pooled, concentrated, and filtered prior to RP-HPLC using a semi-preparative (10×25 cm) C8 column. A 1 mL aliquot of the concentrated protein was loaded onto the column at initial gradient conditions of 95% eluent A and 5% eluent B, where eluent A was 0.1% TFA/100% H2O and eluent B was 70:30 acetonitrile/[…]. The protein elutes using a gradient of 5% eluent A to 95% eluent B over 46 minutes at a flow rate of 4 mL/min. Under these conditions, the protein eluted as a single sharp peak (tR=29 min). […] Surface plasmon resonance confirmed that the purified uPAR was capable of binding to uPA. The identity of the 60 kDa band was established by immunoblot (not shown).
The design of a fluorescent probe was guided by the three-dimensional structure of uPAR in complex with peptide AE147.^27 As this peptide binds at the same site that is occupied by the growth factor-like domain of uPA, it provides the basis for the development of a competition assay to assess binding to this site. Flurescein was introduced to the N-terminus of AE147.
All 210 compounds were screened at initial concentration of 50 μM for displacement of AE147-FAM peptide. Eleven compounds gave polarization readings that were five times that of the standard deviation of the control peptide (FIG. 1B). Secondary concentration-dependent study for these eleven compounds was performed.
The resulting inhibition curves were used to determine an inhibition constant, Ki, for each.

MDA-MB-231 cells [1] = assay: MTT proliferation assay; type: cell-based, human; conditions: MDA-MB-231
Procedure: (§1) Proliferation Assay. The procedure consisted of culturing cells at 37° C. in 10% FBS-DMEM medium containing various amounts of compound. 5 mM compound stock in 100% DMSO was 1:50 diluted in medium, filtered, and serially diluted in 96-well plate. Then seeded cells were incubated for 3 days. Viable cells were quantified by MTT assay at absorbance of 570 and 630 nm.
FIGS. 4A-4D show inhibition of MDA-MB-231 proliferation and mechanism of cell killing. To gain insight into the mechanism by which these compounds are inhibiting growth, a flow cytometry analysis with annexin V-FITC and PI staining was performed. The level of apoptotic cells in MDA-MB-231 was assessed by the percentage of Annexin V-positive/PI-negative cells present after exposure of MDAMB-231 cells to increasing concentration of IPR-69 for 24 h (FIG. 4B). At a concentration of 50 μM, IPR-69 induced significant apoptosis as evidenced by a 51% and 21% increase in apoptotic cells (Annexin V positive/PI-negative) and necrotic cells (Annexin V-positive/PI-positive), respectively. […] At a concentration of 50 μM, 26% of cells were necrotic (Annexin V positive/PI-positive), a 22% increase over control. 46% of cells were apoptotic (Annexin V positive/PInegative), compared with 4% of control.

MMP-9 = assay: Gelatin zymography of MDA-MB-231 conditioned medium; type: cell-based, human
Procedure: Gelatin Zymography. MDA-MB-231 cells were treated with different concentrations of uPAR compounds in serum free medium for 24 h, the conditioned medium were collected, concentrated by Amicon Ultra centrifugal filter units (Millipore, #UFC500324), proteins were normalized and electrophoresed on sodium dodecyl sulfate (SDS)-polyacrylamide gels (10%) containing 1 mg/mL gelatin. After electrophoresis, the gel was washed twice in 50 mM Tris-HCl (pH 7.6) containing 5 mM CaCl2 and 2.5% Triton X-100 for 30 minutes at room temperature and incubated in buffer that contained 50 mM Tris-HCl (pH 7.6), 200 mM NaCl, 10 mM CaCl2 at 37° C. for 36 h. Then, the gels were stained with 0.05% Coomassie brilliant blue (CBB) and destained with 30% methanol in 10% acetic acid. Areas of gelatinolytic degradation appeared as transparent bands on the blue stained background of the gel. Data were quantified using Image J.
To degrade collagen within the ECM, malignant cells unleash a series of extracelullar proteases known as matrix metalloproteinases (MMPs).

[2] = test system: different signaling molecules; assay: Western blot analysis of signaling; type: cell-based; conditions: n=1
Procedure: In light of the previously reported role of uPAR in signaling, the effect of IPR-993, IPR-737, IPR-81 and IPR-69 on signaling was studied by Western blot analysis (FIG. 23). A concentration-dependent study was carried out for IPR-737.

MDA-MB-231 cells [3] = assay: Adhesion assay on fibronectin-coated wells; type: cell-based, human; conditions: MDA-MB-231
Procedure: Adhesion Assay. Quantitative cell adhesion assays were carried out in nontissue culture treated 96-well microtiter plates (Evergreen Scientific, Los Angeles, Calif.) which were coated with 15 μg/mL fibronectin (Sigma) for 1 h at room temperature. Fibronectin coated and uncoated control wells were blocked for 1 h with 3% heat denatured bovine serum albumin (BSA) at 37° C. Cells were split one day prior to the experiment to achieve a subconfluent culture. […] The wells were washed and the number of adherent cells was quantified by crystal violet staining at 570 nm.^19,20 The results were shown by means±SE.

PANC-1 cells [4] = assay: PANC-1 invasion assay; type: cell-based, human
MDA-MB-231 cells [5] = assay: Invasion assay (Boyden chamber, Matrigel); type: cell-based, human
Procedure: Invasion and Migration Assays. These assays were performed using BD BioCoat Matrigel Invasion Chamber (Cat. 354480, BD Biosciences, Bedford, Mass.). The undersurface of the inserts was coated with 30 μg/mL of fibronectin (Sigma, F2006) in PBS at 4° C. overnight. The inserts were washed with PBS once. Then, 0.5 mL of serum-free medium was separately added to the upper and lower chambers to equilibrate the Matrigel invasion chambers at 37° C., 5% CO2 for 2 hours. After starvated with serumfree DMEM or 4 hours, subconfluent MDA-MB-231 cells were trypsinized and resuspended in 0.1% FBS DMEM. 5×10^4 cells in 500 μL of 0.1% FBS DMEM containing various compounds or 1.0% DMSO (as control) were added to the upper chambers. 500 μL of 10% FBS DMEM containing the same concentration of the same compound or DMSO were added to the lower chambers. We incubated the invasion chambers for 3 hours at 37° C., 5% CO2. Non-invaded cells were removed from the upper chamber with a cotton swab. The invaded cells were fixed with 100% methanol and then stained with Hematoxylin Stain Harris Modified Method (Fisher, SH30-500D). The filters were washed with water 3 times. Filters were air dried and the invaded cells were counted in ten randomly selected microscopic fields (×200 magnification). The experiment was performed in triplicate per group and shown by mean±SE.
Whether the two active compounds affected invasion, adhesion and migration in cell culture in a concentration-dependent study was tested (FIGS. 2A, 2B). For invasion, the Transwell (or Boyden) chamber assay was used.^28 The assay uses a chamber with two compartments that are separated by a microporous membrane known as Matrigel consisting of components of the ECM such as collagen, laminin and fibronectin.^28
Invasive tumor cells degrade the Matrigel and migrate through the membrane to the lower compartment. […] FIGS. 2A and 2B show the effect of representative presently disclosed compounds on MDA-MB-231 metastasis. Percent inhibition of invasion, migration, and adhesion of MDA-MB-231 by compounds that bind to uPAR.

PANC-1 cells [6] = assay: MTT assay; type: cell-based, human
Procedure: as §1
Some of the compounds of the presently disclosed subject matter were tested in a MTT assay using a human pancreas carcinoma cell line PANC-1 (FIG. 12A). […] One of these compounds, IPR-737, was further tested in a MTT assay using MDA-MB-231, AsPC-1 (human pancreas adenocarcinoma cell line), and PANC-1 cells.

CYP2C9 = CYP2C9 (Homo sapiens, UniProt P11712); assay: Fluorescence-based CYP2C9 inhibition assay; conditions: 5 μM
Procedure: CYP metabolism was measured using a fluorescence-based assay designed by Cohen et al.,^41 recently implemented by Invitrogen (Carlsbad, Calif.).

T1 sequence (Q03405 23-305): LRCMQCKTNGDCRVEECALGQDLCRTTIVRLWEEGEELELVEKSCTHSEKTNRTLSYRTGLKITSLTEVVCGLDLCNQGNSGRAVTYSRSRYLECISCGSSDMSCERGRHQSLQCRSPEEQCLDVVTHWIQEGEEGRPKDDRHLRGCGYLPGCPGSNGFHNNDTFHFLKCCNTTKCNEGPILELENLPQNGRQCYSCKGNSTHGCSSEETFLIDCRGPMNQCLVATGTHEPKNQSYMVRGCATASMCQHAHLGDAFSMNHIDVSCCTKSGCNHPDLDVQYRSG
CYP2C9, sequence (P11712 whole entry): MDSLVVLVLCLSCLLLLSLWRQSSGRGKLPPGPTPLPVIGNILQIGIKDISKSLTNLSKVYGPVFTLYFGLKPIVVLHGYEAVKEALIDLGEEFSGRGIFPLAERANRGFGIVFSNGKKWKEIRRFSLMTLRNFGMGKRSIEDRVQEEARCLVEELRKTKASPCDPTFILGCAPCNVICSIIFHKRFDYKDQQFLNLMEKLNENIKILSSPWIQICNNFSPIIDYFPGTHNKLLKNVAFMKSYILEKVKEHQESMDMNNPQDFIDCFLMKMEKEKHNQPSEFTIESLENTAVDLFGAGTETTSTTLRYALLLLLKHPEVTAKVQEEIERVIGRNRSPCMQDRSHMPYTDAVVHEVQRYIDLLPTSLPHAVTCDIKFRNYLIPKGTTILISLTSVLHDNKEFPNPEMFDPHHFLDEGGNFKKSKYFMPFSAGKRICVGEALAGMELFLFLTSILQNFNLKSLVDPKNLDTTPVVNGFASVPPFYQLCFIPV

Structure (SMILES): CCCCCCOc1cccc(N2C(=O)C(O)=C(C(=O)c3ccccc3)C2c2ccc(CC)cc2)c1 (stereo not drawn) [IPR-993]
- cell proliferation / viability (MTT, words) (MDA-MB-231 cells [1]): inhibited cell viability
- MMP-9 activity in gelatin zymography (MMP-9): did not appear to demonstrate impairment of MMP-9 activity
- effect on signaling molecules [2]: did not seem to be much of an effect
- cell adhesion (MDA-MB-231 cells [3]): some activity
- cell viability in the PANC-1 invasion assay (PANC-1 cells [4]): little decrease in cell viability
- PANC-1 invasion (PANC-1 cells [4]; increasing concentrations): inhibition of activity with increasing concentrations of compound
- cell invasion (MDA-MB-231 cells [5]): inhibition of activity with increasing concentrations of compound
- cell proliferation / viability (MTT, words) (PANC-1 cells [6]): inhibited cell viability

Structure (SMILES): Nc1ccc(S(=O)(=O)Nc2ccnn2-c2ccccc2)cc1 [sulphaphenazole, reference compound]
- inhibition of CYP2C9 (CYP2C9): approximately 69%

Other lines, results leading:

- pIC50 (uPAR): 4.23
- pKi (uPAR): 4.75
Structure (SMILES): c1ccc(CNCCC(Cc2ccccc2)c2ccc3c(c2)OCO3)cc1 (stereo not drawn) [IPR-021]

- pIC50 (uPAR): 4.62
- pKi (uPAR): 5.14
Structure (SMILES): COc1ccccc1C(CCNCc1ccccc1)c1ccc2c(c1)OCO2 (stereo not drawn) [IPR-022]

- pIC50 (uPAR): 4.38
- pKi (uPAR): 4.89
Structure (SMILES): COc1ccc(N2C(=O)CCC(C(=O)Nc3ccc(OC)c(Cl)c3)C2c2ccc(OC)c(OC)c2)cc1 (stereo not drawn) [IPR-108]
